Reference: PubChem BioAssay AID720643 (The Scripps Research Institute Molecular Screening Center, 2013)
pEC50: −log10 of the molar value. Activity calls are given as the source filed them.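 The calls were made as follows: active = EC50 of 10 µM or lower; inactive = EC50 above 10 µM.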

Target: 5-hydroxytryptamine receptor 2A (Mus musculus) (UniProt P35363)
Test: agonist EC50 at mouse 5-HT2A receptor – cell-based, luminescence, CHO-K1, powder samples, dose response, late-stage follow-up (AID 720643)
Settings: CHO-K1 mHTR2A beta-arrestin PathHunter luminescence

Chain of 5-hydroxytryptamine receptor 2A (Mus musculus) (P35363 whole entry, looked up): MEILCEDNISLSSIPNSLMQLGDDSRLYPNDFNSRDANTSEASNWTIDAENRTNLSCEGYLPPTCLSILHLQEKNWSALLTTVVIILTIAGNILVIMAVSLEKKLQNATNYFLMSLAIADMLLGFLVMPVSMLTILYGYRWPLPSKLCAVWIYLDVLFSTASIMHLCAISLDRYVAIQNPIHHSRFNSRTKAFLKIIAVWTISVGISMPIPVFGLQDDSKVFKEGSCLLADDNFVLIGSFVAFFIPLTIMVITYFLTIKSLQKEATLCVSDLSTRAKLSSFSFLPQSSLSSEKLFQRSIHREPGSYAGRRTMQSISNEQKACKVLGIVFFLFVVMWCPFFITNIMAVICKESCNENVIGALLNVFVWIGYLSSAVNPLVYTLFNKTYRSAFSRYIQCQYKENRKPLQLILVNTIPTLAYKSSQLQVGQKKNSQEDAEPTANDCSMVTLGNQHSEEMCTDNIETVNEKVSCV

Row | Structure (SMILES) | EC50 | pEC50
1 | OC(COc1ccc2cc(Br)ccc2c1)CN1CCN(c2ccccn2)CC1 (stereo not drawn) | > 76.1 µM (inactive) | –
2 | Cn1cc(C(F)(F)F)nc1-c1ccc(OCC(O)CNCCOc2ccc(O)c(C(N)=O)c2)cc1 (stereo not drawn) | > 76.1 µM (inactive) | –
3 | Cc1ccc(CN2CCN(c3ncccn3)CC2)c(C)c1 | > 76.1 µM (inactive) | –
4 | CCCN(CCC)C1CCc2cccc(O)c2C1 (stereo not drawn) | > 76.1 µM (inactive) | –
5 | Brc1ccc(CN2CCN(c3ccccn3)CC2)s1 | > 76.1 µM (inactive) | –
6 | CN(c1ccc(C(=O)N2CCN(Cc3ccccc3)CC2)cc1)S(=O)(=O)c1ccc(Cl)cc1 | > 76.1 µM (inactive) | –
7 | c1ccc(COc2ccc(CN3CCN(c4ccccn4)CC3)cc2)cc1 | > 76.1 µM (inactive) | –
8 | OCC1(Cc2cccc(C(F)(F)F)c2)CCN(Cc2cc3ccccc3o2)CC1 | > 76.1 µM (inactive) | –
9 | C=CCN1CCc2nc(N)sc2CC1 | > 76.1 µM (inactive) | –
10 | O=C(CN1CCN(c2ccccn2)CC1)Nc1ccc(Oc2ccccc2)cc1 | > 76.1 µM (inactive) | –
11 | CCCN1CCC[C@H](c2cccc(O)c2)C1 | > 76.1 µM (inactive) | –
12 | c1ccc(N2CCN(Cc3ccsc3)CC2)nc1 | > 76.1 µM (inactive) | –
13 | COc1cc(CN2CCN(c3ncccn3)CC2)cc(OC)c1 | > 76.1 µM (inactive) | –
14 | Cc1ccc(CN2CCN(c3ncccn3)CC2)o1 | > 76.1 µM (inactive) | –
15 | CCOc1ccc(NC(=O)CCN2CCN(c3ccccc3F)CC2)cc1 | > 76.1 µM (inactive) | –
16 | COC(=O)C1=C(Cn2cnc3ccccc32)NC(=O)NC1c1cc(C)ccc1C (stereo not drawn) | – | 5.46
17 | CCn1c(=O)cc(SCC(=O)NCCCN2CCN(c3ccccc3F)CC2)c2ccccc21 | > 76.1 µM (inactive) | –
18 | Oc1ccc(CN2CCN(c3ncccn3)CC2)cc1 | > 76.1 µM (inactive) | –
19 | Cc1cccc(CN2CCN(c3ccccn3)CC2)c1 | > 76.1 µM (inactive) | –
20 | NC[C@@H]1O[C@H](C23CC4CC(CC(C4)C2)C3)Cc2c1ccc(O)c2O | > 76.1 µM (inactive) | –
21 | CC(=O)N1CCc2cc(C(=O)CN3CCN(c4cccc(Cl)c4)CC3)ccc21 | > 76.1 µM (inactive) | –
22 | CCOC(=O)C1CCN(Cc2cccc(Oc3ccc(Cl)cc3)c2)CC1 | > 76.1 µM (inactive) | –
23 | CC(=O)N1CCC(N2CCN(c3ccccc3F)CC2)CC1 | > 76.1 µM (inactive) | –
24 | COc1ccccc1C(=O)NCCN1CCN(c2ccccc2)CC1 | > 76.1 µM (inactive) | –
25 | CC1CC(C)CN(CCOc2cccc(Cl)c2Cl)C1 (stereo not drawn) | > 76.1 µM (inactive) | –
26 | Cc1ccsc1CN1CCN(c2ccccn2)CC1 | > 76.1 µM (inactive) | –
27 | COc1ccc(CN2CCN(c3ncccn3)CC2)c(C)c1C | > 76.1 µM (inactive) | –

Row | Structure (SMILES) | EC50 | pEC50
28 | COc1ccc(CN2CCN(C(=O)c3ccco3)CC2)cc1OCc1ccccc1 | > 76.1 µM (inactive) | –
29 | NC1CCc2cc(O)c(O)cc2C1 (stereo not drawn) | > 76.1 µM (inactive) | –
30 | CCOc1cc(CN2CCN(C(=O)c3ccco3)CC2)ccc1OC | > 76.1 µM (inactive) | –
31 | CC1(C)C(C=C(Cl)Cl)C1C(=O)N1CCN(Cc2ccccc2)CC1 (stereo not drawn) | > 76.1 µM (inactive) | –
32 | O=C(c1ccco1)N1CCN(Cc2ccc(Cl)cc2)CC1 | > 76.1 µM (inactive) | –
33 | Cc1ccc(CN2CCN(c3ccccn3)CC2)s1 | > 76.1 µM (inactive) | –
34 | Fc1cccc(CN2CCN(c3ncccn3)CC2)c1 | > 76.1 µM (inactive) | –
35 | Fc1ccccc1CN1CCN(c2ncccn2)CC1 | > 76.1 µM (inactive) | –
36 | Clc1ccccc1CN1CCN(c2ccccc2)CC1 | > 76.1 µM (inactive) | –
37 | COc1ccc(CN2CCN(c3ccccn3)CC2)c(OC)c1 | > 76.1 µM (inactive) | –
38 | Clc1ccccc1CN1CCN(c2ncccn2)CC1 | > 76.1 µM (inactive) | –
39 | c1ccc(CN2CCN(c3ncccn3)CC2)cc1 | > 76.1 µM (inactive) | –
40 | CCOC(=O)N1CCN(Cc2ccc(OCC(O)CN3CCCCC3)cc2)CC1 (stereo not drawn) | > 76.1 µM (inactive) | –
41 | CC(C)C[C@H]1C(=O)N2CCC[C@H]2[C@]2(O)O[C@](NC(=O)[C@@H]3C=C4c5cccc6[nH]c(Br)c(c56)CC4N(C)C3)(C(C)C)C(=O)N12 (stereo partly drawn) | > 76.1 µM (inactive) | –
42 | CC(COc1ccccc1)N1CCC(CO)(Cc2ccccc2)CC1 (stereo not drawn) | > 76.1 µM (inactive) | –
43 | Clc1ccc(CN2CCN(c3ncccn3)CC2)cc1Cl | > 76.1 µM (inactive) | –
44 | Brc1cccc(CN2CCN(c3ncccn3)CC2)c1 | > 76.1 µM (inactive) | –
45 | COc1cccc(OCC(O)CN2CCN(c3ccccn3)CC2)c1 (stereo not drawn) | > 76.1 µM (inactive) | –
46 | CCc1ccc(CN2CCN(C(=O)c3ccco3)CC2)cc1 | > 76.1 µM (inactive) | –
47 | COc1cccc(-n2cc(CNCc3cn(C)nc3-c3ccccc3F)cn2)c1 | > 76.1 µM (inactive) | –
48 | Cc1cccc(CN2CCN(c3ncccn3)CC2)c1 | > 76.1 µM (inactive) | –
49 | COc1ccc(CN2CCN(c3ncccn3)CC2)c(OC)c1 | > 76.1 µM (inactive) | –
50 | COc1cc(Br)cc(CN2CCN(c3ncccn3)CC2)c1O | > 76.1 µM (inactive) | –
51 | COc1ccc(CC2(CO)CCN(Cc3cc4ccccc4o3)CC2)cc1 | > 76.1 µM (inactive) | –
52 | Clc1ccc(CN2CCN(c3ncccn3)CC2)cc1 | > 76.1 µM (inactive) | –
53 | Fc1ccc(F)c(CN2CCN(c3ncccn3)CC2)c1 | > 76.1 µM (inactive) | –
